The nature of series [1]: particle size, Horiba LA 910 particle size analyzer. The conditions noted are these: unmilled drug crystals, before incorporation into nanoparticulate formulation.
The conditions of series [2]: cited from earlier work.

In patent US7910577B2 (priority 2004, dated 2011) one finds mean particle size and solubility in water data, which are given here for 1 compound.

Each structure is given as a SMILES string.

With `Cc1cc2c(s1)Nc1ccccc1N=C2N1CCN(C)CC1` [Olanzapine, 2-methyl-4-(4-methyl-1-piperazinyl) -10H-thieno[2,3-b][1,5]benzodiazepine], the mean particle size in series [1] is on record as 137.08 microns. In series [2], the solubility in water entry is given as “practically insoluble in water”.
